Data on one compound can be found in ChEMBL document CHEMBL1122422, “Resolution of etodolac and antiinflammatory and prostaglandin synthetase inhibiting properties of the enantiomers” (J Med Chem, 1983).

The assay is filed under the species Ovis aries. Kind of assay: Effect of compound (400 uM) on biosynthesis of prostaglandins from tritiated arachidonic acid was evaluated in vitro; NE = No effect at the given concentration. The format is functional.

For `CCc1cccc2c3c([nH]c12)C(CC)(CC(=O)O)OCC3` (single isomer, unassigned; (-)), the Activity entry is “No effect”.
